This note sets out measurements from ChEMBL document CHEMBL4177571, “Synthesis and biological evaluation of a new series of cinnamic acid amide derivatives as potent haemostatic agents containing a 2-aminothiazole substructure” (Bioorg Med Chem Lett, 2017).

The structures appear in SMILES notation.

The test system of series [1] is Plasma. Kind of series: Haemostatic activity in human plasma assessed as change in rate of prothrombin time at 5 uM after 3 mins by thromboplastic agent based assay relative to control. The class given is functional.
Series [2] deals with Plasma. Put plainly: Haemostatic activity in human plasma assessed as change in rate of thrombin time at 50 uM after 3 mins by thrombin agent based assay relative to control. The series is classed as functional.
The subject of series [3] is Plasma. Kind of series: Haemostatic activity in human plasma assessed as change in rate of thrombin time at 5 uM after 3 mins by thrombin agent based assay relative to control. The series is classed as functional.
Series [4] concerns Plasma. Kind of series: Haemostatic activity in human plasma assessed as change in rate of thrombin time at 10 uM after 3 mins by thrombin agent based assay relative to control. The class given is functional.
The subject of series [5] is Plasma. Put plainly: Haemostatic activity in human plasma assessed as change in rate of prothrombin time at 100 uM after 3 mins by thromboplastic agent based assay relative to control. The series is classed as functional.
For series [6], the system named is Plasma. Kind of series: Inhibition of ADP-induced platelet aggregation in human plasma. The class given is functional.
Series [7] deals with Plasma. Put plainly: Haemostatic activity in human plasma assessed as change in rate of prothrombin time at 1 uM after 3 mins by thromboplastic agent based assay relative to control. The class given is functional.
Series [8] relates to Plasma. Put plainly: Haemostatic activity in human plasma assessed as change in rate of activated partial thromboplastin time at 5 uM after 3 mins relative to control. The class given is functional.
Series [9] relates to Plasma. Put plainly: Haemostatic activity in human plasma assessed as change in rate of activated partial thromboplastin time at 50 uM after 3 mins relative to control. The class given is functional.
The test system of series [10] is Plasma. Put plainly: Haemostatic activity in human plasma assessed as change in rate of thrombin time at 1 uM after 3 mins by thrombin agent based assay relative to control. The class given is functional.
Series [11] concerns Plasma. Kind of series: Haemostatic activity in human plasma assessed as change in rate of thrombin time at 100 uM after 3 mins by thrombin agent based assay relative to control. The class given is functional.
Series [12] concerns Plasma. Put plainly: Haemostatic activity in human plasma assessed as change in rate of activated partial thromboplastin time at 100 uM after 3 mins relative to control. The class given is functional.
Series [13] deals with Plasma. Put plainly: Haemostatic activity in human plasma assessed as change in rate of activated partial thromboplastin time at 10 uM after 3 mins relative to control. The series is classed as functional.
The subject of series [14] is Plasma. Put plainly: Haemostatic activity in human plasma assessed as change in rate of prothrombin time at 50 uM after 3 mins by thromboplastic agent based assay relative to control. The series is classed as functional.
The nature of series [15]: Thermal stability of the compound at 150 degC by thermogravimetric assay. The series is classed as physicochemical.
The subject of series [16] is Plasma. Put plainly: Haemostatic activity in human plasma assessed as change in rate of prothrombin time at 10 uM after 3 mins by thromboplastic agent based assay relative to control. The class given is functional.
Series [17] relates to Plasma. Put plainly: Haemostatic activity in human plasma assessed as change in rate of activated partial thromboplastin time at 1 uM after 3 mins relative to control. The class given is functional.

For `O=C(CCc1ccccc1)Nc1nccs1`, the Activity is -2.44% in [1]; -7.02% in [2]; -4.6% in series [3]; -5.33% in [4]; 0% in series [5]; -0.56% in [7]. Moreover, the Activity is given as -2.42% in series [8]; -1.56% in series [9]; -3.15% in series [10]; -7.93% in [11]; 0.28% in [12]; -1.85% in series [13]. The Activity is reported as -2.81% in [14], -3.19% in [16] and 1% in series [17]. For the same compound, in [6], half-maximal inhibition (IC50) was put at 45.1 µM. Moreover, the Stability entry in series [15] is on record as “Stable”.
With `COc1ccc(/C=C/C(=O)Nc2nccs2)cc1OC`, the Activity is 0.28% in [1]; -23.82% in [2]; -16.04% in [3]; -22.41% in [4]; -2.99% in [5]; -1.7% in series [7]. Moreover, the Activity in [8] is listed as -6.47%; in series [9], -0.56%; in series [10], -14.62%; in series [11] it was -14.62%; in series [12] it was 1.97%; in series [13], -1.41%. In addition, the Activity in series [14] is -1.49%; in [16], -0.22%; in series [17] it was -0.14%. Also, in [6], 54.5 µM corresponded to half-maximal inhibition (IC50). Further, the Stability result in [15] was “Stable”.
Consider `COc1cc(/C=C/C(=O)Nc2nccs2)cc(OC)c1OC`, for which the Activity in [1] is recorded as -0.95%; in [2], -21.7%; in series [3], -22.17%; in series [4] it was -10.14%; in series [5] it was 2.55%; in [7], 0.56%. Also, the Activity in [8] is listed as 1.55%; in [9], 1.96%; in series [10], -29.01%; in series [11], -50.24%; in [12], 1.69%; in [13], 2.25%. Also, the Activity turned out to be 0.55% in series [14], 3.22% in series [16] and 0.56% in series [17]. In [6], inhibition was half-maximal at 18.1 µM (IC50). The Stability entry in series [15] was “Stable”.
For the compound `COc1ccc(/C=C/C(=O)Nc2nccs2)cc1`, the Activity in series [1] is given as -2.27%; in series [2] it was -13.8%; in series [3] it was -7.51%; in [4] it was -8.23%; in series [5] it was -6.75%; in series [7] it was -1.51%. Besides, the Activity is reported as -2.7% in series [8]; 0.28% in series [9]; -6.54% in [10]; -16.95% in series [11]; -0.71% in series [12]; 0.14% in [13]. Moreover, the Activity in series [14] is given as -0.75%; in [16] it was 0%; in series [17] it was -1.28%. Also, half-maximal inhibition in series [6] (IC50) was put at 73.7 µM. The Stability entry in [15] is given as “Stable”.
As for `CC(=O)Oc1ccc(/C=C/C(=O)Nc2nccs2)cc1`, the Activity is recorded as -4.4% in series [1]; -21.15% in series [2]; -14.54% in series [3]; -22.03% in series [4]; 1.2% in [5]; -3.2% in [7]. Moreover, the Activity is recorded as -3.1% in series [8]; -2.71% in [9]; -11.45% in series [10]; -6.39% in [11]; -2.45% in series [12]; -3.88% in [13]. Further, the Activity is -4.3% in series [14], -5.29% in [16] and -1.68% in series [17]. For the same compound, the midpoint of inhibition in series [6], the IC50, lay at 58.1 µM. The Stability entry in [15] is “Stable”.
On to `COc1cc(/C=C/C(=O)Nc2nccs2)ccc1OC(C)=O`, for which the Activity in [1] is listed as -2.24%; in series [2], -12.35%; in series [3], -7.88%; in series [4], -13.06%; in [5], -7.32%; in series [7] it was -1.98%. Also, the Activity in [8] is -2.57%; in series [9], -6.28%; in [10], -5.76%; in series [11], -11.06%; in series [12], -1.85%; in series [13], -3.42%. Also, the Activity was -5.77% in [14], -4.39% in series [16] and -1.14% in series [17]. 25.5 µM corresponded to half-maximal inhibition in series [6] (IC50). Besides, in [15], the Stability entry is “Stable”.
Take `O=C(/C=C/c1ccccc1)Nc1nccs1`: the Activity in series [1] was -7.09%; in series [2], -13.66%; in series [3], -10.79%; in [4], -11.23%; in [5], -3.7%; in series [7], -5.69%. Besides, the Activity in series [8] is listed as -5.81%; in [9], -6.72%; in series [10], -7.93%; in series [11], -9.69%; in series [12], -2.71%; in series [13] it was -9.95%. Further, the Activity was -4.4% in series [14], -5.59% in [16] and -4.78% in [17]. Moreover, it took 36.6 µM to reach half-maximal inhibition in series [6] (IC50). In series [15], the Stability entry is given as “Stable”.
As for `CC(=O)Oc1ccccc1/C=C/C(=O)Nc1nccs1`, the Activity is recorded as -3.25% in series [1]; -26.2% in series [2]; -13.46% in [3]; -21.39% in series [4]; -1.78% in series [5]; -1.68% in [7]. In addition, the Activity is -9.51% in [8]; -8.15% in [9]; -2.4% in series [10]; -21.88% in series [11]; -6.12% in series [12]; -8.61% in series [13]. For the same compound, the Activity in [14] was -2.2%; in [16], -4.62%; in series [17], -5.55%. 1.87 µM corresponded to half-maximal inhibition in [6] (IC50). Also, the Stability result in series [15] is “Stable”.
As to `CC(=O)Oc1cccc(/C=C/C(=O)Nc2nccs2)c1`, the Activity in series [1] is reported as -1.05%; in series [2] it was -19.95%; in [3], -7.21%; in series [4], -15.39%; in series [5], -0.84%; in [7], -0.1%. Moreover, the Activity was -6.57% in series [8]; -9.06% in series [9]; -5.05% in series [10]; -21.64% in series [11]; -8.61% in series [12]; -10.19% in series [13]. The Activity in series [14] is listed as -0.42%; in series [16] it was -0.73%; in series [17], -4.64%. In addition, the IC50 – broadly, the concentration that gives 50% inhibition – in [6] amounted to 35.5 µM. For the same compound, the Stability entry in series [15] is listed as “Stable”.
Take `CC(=O)Oc1ccc(/C=C/C(=O)Nc2nccs2)cc1OC(C)=O`: the Activity in series [1] is -4.09%; in [2], -27.89%; in [3] it was -30.77%; in series [4] it was -28.13%; in series [5], -3.88%; in series [7], -4.3%. In addition, the Activity in series [8] is -6%; in [9], -2.04%; in series [10], -13.94%; in [11], -15.63%; in series [12] it was 0%; in series [13], -2.94%. Moreover, the Activity in series [14] is recorded as -1.68%; in series [16], -1.36%; in series [17], -2.94%. Further, half-maximal inhibition in [6] (IC50) required 75.6 µM. Moreover, in series [15], the Stability result is reported as “Stable”.
Take `Nc1nccs1` [AMINOTHIAZOLE]: the Activity in series [1] was -4.91%; in series [2] it was -5.41%; in series [3] it was -5.06%; in series [4], -6.47%; in series [5] it was -5.43%; in series [7] it was -6.63%. In addition, the Activity in series [8] is reported as -2%; in series [9], 0%; in [10], -3.53%; in [11], -3.53%; in series [12] it was 2.53%; in series [13], -0.43%. For the same compound, the Activity in series [14] is listed as -5.17%; in [16] it was -2.84%; in series [17], -3.71%. In series [6], the IC50 turned out to be 202 µM.
`O=S(=O)(O)c1cc(O)ccc1O` [ETHAMSYLATE] yielded an IC50 in series [6] of 46.2 µM. That is a double-digit micromolar value.
